According to patent US12623942B2, “Method for extracting salts and temperature- regenerated extracting composition” (ADIONICS, priority 2016, dated 2026):

How the values were obtained:
[1] = Extraction isotherms of CaCl2 at room temperature and 80° C.; conditions: 0.1M CEM2 + 1M ASM9 in 12ClPh, Org./Water = 1
Protocol: Concerning the extraction or back extraction assays at a higher temperature, in particular at 60° C. or at 80° C., a magnetic stirring (at 500 revolutions per minute), for 2 hours, is carried out with an indirect thermostatically-controlled heating in a metal mold on a hotplate.
This series of examples aims to establish two extraction isotherms of CaCl2 at 20° C. and at 80° C. for an extracting composition including 0.1 Mol/L of CEM2, combined with 1 Mol/L of ASM9; the whole dissolved in 1,2-dichlorobenzene.
After carrying out the 7 specific extractions (duplicated) of salts, the amounts of extracted cations in relative molar percentage before and after extraction at room temperature and at water/extracting formulation iso-volume are indicated in table IV: […]
The same series of extractions was then carried out at 80° C. to give table V as follows: […]

[2] = Regeneration (back-extraction) of the extracting composition charged with CaCl2
Protocol: Two samples of the extracting composition of example 4 with the highest content of CaCl2 at 20° C. were contacted with a saline water at 1 Mol/L of CaCl2 at room temperature to increase the salt charging level of the dissolved CEM2 cation extracting molecules, and thus to get close to their salt saturation level (0.1 Mol/L). Then, these two samples were contacted with an iso-volume of distilled water at 20° C. and stirred. One of the two diphasic samples was then heated up to 80° C. and kept under stirring. The initial salt charging level being assessed at 80 mMol/L, it appears that the latter drops to 15.27 mMol/L from the first regeneration step at 80° C. whereas, during regeneration at 20° C., the salt residual concentration is 29.3 mMol/L. FIG. 4 illustrates the results obtained throughout several serial steps of contacting the hydrophobic organic liquid phase charged with salts with an iso-volume of distilled water. […] In use, this advantage seems to be even more significant when a resin with a high CEM content, and thus a high salt content, is implemented.

With `CCN(CC)C(=O)COc1c2cc(C(C)(C)C)cc1Cc1cc(C(C)(C)C)cc(c1OCC(=O)N(CC)CC)Cc1cc(C(C)(C)C)cc(c1OCC(=O)N(CC)CC)Cc1cc(C(C)(C)C)cc(c1OCC(=O)N(CC)CC)Cc1cc(C(C)(C)C)cc(c1OCC(=O)N(CC)CC)Cc1cc(C(C)(C)C)cc(c1OCC(=O)N(CC)CC)C2` [CEM2, 4-tert-butyl-Calix[6]arene hexakis(N,N-diethylacetamide)] the “Extraction rate at 80° C., CaCl2” value ([1]; 0.01M) was 11%, the “Extraction rate at 80° C., CaCl2” value ([1]; 0.02M) was 16% and the “Extraction rate at 80° C., CaCl2” value ([1]; 0.03M) was 18%. The “Extraction rate at 80° C., CaCl2” value ([1]; 0.04M) was 17%, the “Extraction rate at 80° C., CaCl2” value ([1]; 0.1M) was 18% and the “Extraction rate at 80° C., CaCl2” value ([1]; 0.2M) was 16%. The “Extraction rate at 80° C., CaCl2” value ([1]; 0.4M) was 10%, the “Extraction rate at room temperature (RT), CaCl2” value (“Extraction rate … (RT), CaCl2” for short) ([1]; 0.01M) was 39% and the “Extraction rate … (RT), CaCl2” value ([1]; 0.02M) was 42%. For the same compound, the “Extraction rate … (RT), CaCl2” value ([1]; 0.03M) was 41%, the “Extraction rate … (RT), CaCl2” value ([1]; 0.04M) was 40% and the “Extraction rate … (RT), CaCl2” value ([1]; 0.1M) was 34%. For the same compound, the “Extraction rate … (RT), CaCl2” value ([1]; 0.2M) was 27%, the “Extraction rate … (RT), CaCl2” value ([1]; 0.4M) was 16% and the “Salt residual concentration after regeneration” value ([2]; 0.1 Mol/L CEM2 + 1 Mol/L ASM9 in 1,2-dichlorobenzene, initial charge 80 mMol/L CaCl2, iso-volume distilled water, 20° C.) was 29.3 mmol/L. The “Salt charging level after the first regeneration step” value ([2]; 0.1 Mol/L CEM2 + 1 Mol/L ASM9 in 1,2-dichlorobenzene, initial charge 80 mMol/L CaCl2, iso-volume distilled water, 80° C.) was 15.27 mmol/L and the “Reduction in the number of necessary regeneration steps, hot regeneration” value ([2]; 80° C. versus 20° C., same CaCl2 overall back-extraction rate) was 2 fold.
